{"source": "patent US20220227728A1", "about": "“Microtubule-associated protein Tau imaging compounds for Alzheimer's disease and precursors thereof” (priority 2021, published 2022)", "tested_on": "microtubule-associated protein Tau", "assay": "nano PET/CT imaging in P301L gene transgenic mice and control mice", "format": "in vivo", "conditions": "0.46 mCi by tail vein, 30 minutes of distribution", "description": "FIG. 3 is an image of the microtubule-associated protein Tau compound 29 of the present invention in P301L gene transgenic mice and control mice using positron emission tomography (nano PET/CT) analysis, in which P301L gene transgenic mice (source: United States JACKSON Research Center) refers to the mutation of proline to leucine at codon 301 of the encoded microtubule-associated protein Tau. These types of mutations can accelerate the formation of neurofibrillary tangles. P301L gene transgenic mice and control mice were injected through the tail vein with 0.46 millicuries (mCi) of compound 29 of the present invention, and after 30 minutes of distribution, radiography was performed on the mice using a positron emission tomography scanner (BIOSCAN).\n0.46 mCi of compound 29 was injected into P301L gene transgenic mice and control mice, and after 30 minutes of distribution nano-PET/CT was used for contrast imaging.", "note": "Entries after “also recorded” stand apart in the source; their conditions may differ.", "data": [{"compound": "CC([18F])COc1ccc2cc(-n3cc4ccccc4c3)ncc2c1", "note": "(stereo not shown) [compound 29, [18F] 7-(2-fluoropropoxy)-3-(2H-isoindol-2-yl) isoquinoline]", "values": [{"measurement": "drug accumulation (absorption) in the brain of P301L gene transgenic mice versus control mice", "value": "significantly higher than that of the control mice; also recorded: significantly greater than that of control mice"}]}]}
